Data from PMC12921483 (Frontiers in Pharmacology, 2026).
Where two headings read alike, the source gives them in different places.

Experiments:
Assay type in all cases: cell-based
H8 = assay: CCK-8 cytotoxicity, normal cervical epithelial cells H8; settings: for IC50: read-out: IC50 H8; for toxicity to H8 cells in words: normal cervical epithelial cells
Procedure: (§1) Cells were seeded into 96-well plates at a density of 2.5–6 × 10^3 cells per well and incubated for 24 h. They were then treated with a series of eight concentrations of the test compounds (e.g., from 100 to 0.78125 μM or from 2 to 0.015625 μM, prepared by twofold serial dilution) for 48 h. After treatment, the medium was removed and replaced with 100 μL of 10% CCK-8 solution (diluted in fresh medium). Following incubation in the dark for 1–2 h, absorbance at 450 nm was measured using a microplate reader. The half-maximal inhibitory concentration (IC50) was calculated using SPSS software. Each concentration was tested in six replicate wells, and the entire experiment was performed in three independent biological replicates.
(§2) IC50 values were derived by nonlinear regression (SPSS 26). All data are presented as mean ± SD from at least three independent biological replicates (n ≥ 3). Differences were assessed by Student’s t-test (two groups) or one-way ANOVA with Tukey’s post hoc test (multiple groups). […] Statistical significance was set at p < 0.05.

SiHa = assay: CCK-8 antiproliferative assay, SiHa; settings: read-out: IC50 SiHa
Procedure: as §1, §2

HeLa = assay: CCK-8 antiproliferative assay, HeLa
Procedure: as §1, §2

C-33A = assay: CCK-8 antiproliferative assay, C-33A; settings: read-out: IC50 C-33A
Procedure: as §1, §2

SLC7A11 = assay: Western blot, SLC7A11 expression in HeLa cells; settings: Fer-1 5 μmol/L cotreated with B1, HeLa
GPX4 = assay: Western blot, GPX4 expression in HeLa cells; settings: Fer-1 5 μmol/L cotreated with B1, HeLa
HeLa cells [1] = assay: GSH assay kit; settings: Fer-1 5 μmol/L cotreated with 0.22 μmol/L B1, HeLa
Procedure: Intracellular GSH levels were measured using a GSH assay kit.
(§3) After 24 h of treatment, cells were collected and washed twice with PBS for subsequent analysis. […] Subsequent procedures were performed strictly according to the manufacturer’s instructions of the respective kits: MDA assay kit (Servicebio, Cat# GM1134), Fe^2+ colorimetric assay kit (Servicebio, Cat# GM3052), and reduced GSH assay kit (Servicebio, Cat# GM1139).

HeLa cells [2] = assay: MDA assay kit; settings: Fer-1 5 μmol/L cotreated with 0.22 μmol/L B1, HeLa
Procedure: MDA levels in HeLa cells were detected using an MDA assay kit ([Tsikas et al., 2017]).
After 24 h of treatment, cells were collected and washed twice with PBS for subsequent analysis.

HeLa cells [3] = assay: Fe2+ assay kit; settings: Fer-1 5 μmol/L cotreated with 0.22 μmol/L B1, HeLa
Procedure: Intracellular ferrous iron (Fe^2+) levels in HeLa cells were measured using an Fe^2+ assay kit.
as §3

[4] = Homo sapiens, HeLa, 48 h, read-out: IC50 HeLa
[5] = Epithelial cell, CCK-8, 48 h, normal cells, Table 1
[6] = Homo sapiens, SiHa, CCK-8, 48 h, Table 1
[7] = Homo sapiens, HeLa, CCK-8, 48 h, Table 1, read-out: IC50 HeLa
[8] = Homo sapiens, C-33-A, CCK-8, 48 h, Table 1
[9] = CCK-8, 48 h, normal cells, Table 1
[10] = CCK-8, 48 h, Table 1, read-out: IC50 HeLa

Row | Structure (SMILES) | IC50 (HeLa; [4]) [µM] | IC50 (H8; Epithelial cell, 48 h) [µM] | IC50 (SiHa; Homo sapiens, SiHa, 48 h) [µM] | IC50 (C-33A; Homo sapiens, C-33-A, 48 h) [µM] | other results
1 | O=C(/C=C/c1ccccc1)c1ccccc1 [Chalcone, reference compound] |  |  |  |  | IC50 (H8; [5]): 38.6 ± 1.64 µM; IC50 (SiHa; [6]): 69.7 ± 1.67 µM; IC50 (HeLa; [7]): 63.9 ± 2.85 µM; IC50 (C-33A; [8]): 58.7 ± 1.05 µM
2 | Cc1cccc(C(=O)/C=C/c2ccc(N3CCCC3)cc2)c1 [Compound A7] | 27.6 ± 2.23 | 91.6 ± 3.28 | 16.41 ± 0.13 | 37.2 ± 0.19 | 
3 | COc1ccc(C(=O)/C=C/c2ccc(N3CCCC3)cc2)c(OC)c1OC [Compound A4] | 15.7 ± 0.38 | 81 ± 1.03 | 7.78 ± 0.24 | 21.3 ± 1.02 | 
4 | COc1cccc(OC)c1C(=O)/C=C/c1ccc(N2CCCC2)cc1 [Compound A3] | 31.5 ± 1.46 | > 100 | 64.44 ± 0.57 | > 100 | 
5 | CCOc1ccccc1-n1c(C(C)N2CCN(C(=O)COc3ccc(Cl)cc3)CC2)nc2ccccc2c1=O (stereo not shown) [Erastin, reference compound] |  |  |  |  | IC50 (HeLa; Homo sapiens, HeLa, CCK-8, Table 3, ferroptosis inducer/inhibitor comparison, read-out: IC50 HeLa): 17.2 ± 0.53 µM
6 | O=C(/C=C/c1ccc(N2CCCC2)cc1)c1cccc(C(F)(F)F)c1 [Compound A6] | 31.8 ± 1.45 | 86.4 ± 3.17 | 34.5 ± 0.59 | 35.1 ± 0.37 | IC50 (HeLa; Homo sapiens, HeLa): > 100 µM
7 | O=C(/C=C/c1ccc(N2CCCC2)cc1)c1ccc(C(F)(F)F)cc1 [Compound A8] | > 100 | > 100 | > 100 | > 100 | 
8 | CCOC(=O)c1ccc(NC2CCCCC2)c(N)c1 [Ferrostatin-1, ferrostatin-1] |  |  |  |  | SLC7A11 protein expression level on cotreatment (SLC7A11): increased; GPX4 protein expression level on cotreatment (GPX4): increased; intracellular GSH levels on cotreatment (HeLa cells [1]): increased; MDA levels on cotreatment (HeLa cells [2]): reduced; Fe^2+ levels on cotreatment (HeLa cells [3]): reduced
9 | COc1ccc(C2=N[C@@H](c3ccc(Cl)cc3)[C@@H](c3ccc(Cl)cc3)N2C(=O)N2CCNC(=O)C2)c(OC(C)C)c1 [Nutlin-3a, reference compound] |  |  |  |  | IC50 (H8; [9]): 45.5 ± 2.11 µM; IC50 (SiHa; CCK-8, 48 h, Table 1): 56.6 ± 2.2 µM; IC50 (HeLa; [10]): 61.3 ± 1.42 µM; IC50 (C-33A; CCK-8, 48 h, Table 1): 57 ± 2.81 µM
10 | COc1ccccc1C(=O)/C(C)=C/c1ccc(N2CCCC2)cc1 [Compound B4] |  |  |  |  | IC50 (H8; [5]): > 100 µM; IC50 (SiHa; [6]): 44.7 ± 0.78 µM; IC50 (HeLa; [7]): 84.8 ± 2.69 µM; IC50 (C-33A; [8]): > 100 µM
11 | N.N.[Cl][Pt][Cl] [Cisplatin, reference compound] |  |  |  |  | IC50 (H8; [9]): 25.6 ± 1.32 µM; IC50 (SiHa; CCK-8, 48 h, Table 1): 37 ± 1.54 µM; IC50 (HeLa; [10]): 18.23 ± 0.11 µM; IC50 (C-33A; CCK-8, 48 h, Table 1): 12.7 ± 1.09 µM
12 | COc1ccccc1C(=O)/C=C/c1ccc(N2CCCC2)cc1 [Compound A1] | 3.04 ± 0.03 | 61.3 ± 1.34 | 2.93 ± 0.21 | 4.79 ± 0.19 | toxicity to H8 cells in words (H8): low toxicity
13 | O=C(/C=C/c1ccc(N2CCCC2)cc1)c1ccccc1C(F)(F)F [Compound A5] | 13.6 ± 0.26 | 78.7 ± 1.41 | 38 ± 0.74 | 36.69 ± 0.22 | 
14 | COc1ccc(C(=O)/C=C/c2ccc(N3CCCC3)cc2)c(OC)c1 [Compound A2] | 16.7 ± 0.65 | 74 ± 1.05 | 18.3 ± 0.73 | 17.9 ± 0.55 | 
15 | O=C(/C=C/c1ccc(N2CCCC2)cc1)c1ccc(Cl)c(Cl)c1Cl [Compound A9] |  |  |  |  | IC50 (H8; [5]): > 100 µM; IC50 (SiHa; [6]): 90.5 ± 3.38 µM; IC50 (HeLa; [7]): > 100 µM; IC50 (C-33A; [8]): > 100 µM

Further lines, with some results ahead:

Row | IC50 (HeLa; [4]) [µM] | Structure (SMILES) | IC50 (H8; Epithelial cell, 48 h) [µM] | IC50 (SiHa; Homo sapiens, SiHa, 48 h) [µM] | IC50 (C-33A; Homo sapiens, C-33-A, 48 h) [µM] | other results
16 | 4.09 ± 0.24 | O=C(/C=C/c1ccccc1OC(F)(F)F)c1ccc(N2CCCC2)cc1 [Compound D4] | > 100 | 9.28 ± 0.33 | 33 ± 2.38 | 
17 | 0.22 ± 0.01 | COc1ccc(F)cc1C(=O)/C=C/c1ccc(N2CCCC2)cc1 [Compound B1] | 45.8 ± 1.61 | 0.24 ± 0.03 | 0.95 ± 0.02 | toxicity to H8 cells in words (H8): low toxicity; IC50 (SiHa; Homo sapiens, SiHa): ~0.24 µM; IC50 (HeLa; Homo sapiens, HeLa, read-out: IC50 HeLa): ~0.22 µM
18 | 9.3 ± 0.57 | COc1ccc(OC)c(C(=O)/C=C/c2ccc(N3CCCC3)cc2)c1 [Compound C1] | 27.2 ± 2.33 | 9.92 ± 0.67 | 13.8 ± 0.45 | IC50 (HeLa; Homo sapiens, HeLa): 27.1 µM
19 | 10.8 ± 0.37 | COc1ccc(Br)cc1/C=C/C(=O)c1ccc(N2CCCC2)cc1 [Compound D2] | 40 ± 0.55 | 11.55 ± 0.06 | 49.8 ± 2.93 | 
20 | 32 ± 1.28 | O=C(/C=C/c1cccc(OC(F)(F)F)c1)c1ccc(N2CCCC2)cc1 [Compound D5] | > 100 | 44.4 ± 1.64 | > 100 | 
21 | 27.1 ± 0.59 | O=C(/C=C/c1ccc(N2CCCC2)cc1)c1cc(F)ccc1F [Compound C2] | 35.1 ± 0.95 | 26.4 ± 1.11 | 44.1 ± 1.99 | IC50 (HeLa; Homo sapiens, HeLa): 9.3 µM
22 | 1.59 ± 0.08 | COc1ccc(Cl)cc1C(=O)/C=C/c1ccc(N2CCCC2)cc1 [Compound B3] | 57 ± 2.47 | 2.17 ± 0.02 | 4.29 ± 0.15 | 
23 | 0.9 ± 0.02 | O=C(/C=C/c1ccc(N2CCCC2)cc1)c1ccccc1OC(F)(F)F [Compound B5] | 76.9 ± 3.87 | 0.91 ± 0.03 | 5.93 ± 0.07 | 
24 | 5.25 ± 0.1 | COc1ccc(F)cc1/C=C/C(=O)c1ccc(N2CCCC2)cc1 [Compound D1] | 19.2 ± 1.08 | 5.44 ± 0.23 | 20.9 ± 1.03 | 
25 | 1.09 ± 0.05 | COc1ccc(Br)cc1C(=O)/C=C/c1ccc(N2CCCC2)cc1 [Compound B2] | 56.8 ± 0.75 | 1.35 ± 0.13 | 4.4 ± 0.11 | 
26 | > 100 | O=C(/C=C/c1ccc(OC(F)(F)F)cc1)c1ccc(N2CCCC2)cc1 [Compound D6] | > 100 | 77.3 ± 2.13 | > 100 | 
27 | 8.17 ± 0.46 | COc1ccc(Cl)cc1/C=C/C(=O)c1ccc(N2CCCC2)cc1 [Compound D3] | 22.6 ± 0.32 | 10.9 ± 0.38 | 34.2 ± 1.3 | 
28 | > 100 | O=C(/C=C/c1ccc(N2CCCC2)cc1)c1ccc(OC(F)(F)F)cc1 [Compound B7] | > 100 | > 100 | > 100 | 
29 | > 100 | O=C(/C=C/c1ccc(N2CCCC2)cc1)c1cccc(OC(F)(F)F)c1 [Compound B6] | > 100 | 49.5 ± 1.4 | > 100 | 
